Experimental data taken from US20220280661A1, “GLUCOCORTICOID RECEPTOR RADIOLIGANDS AND METHODS FOR THEIR PREPARATION AND USE” (The Regents of the University of California, priority 2019, published 2022).
Where two headings read alike, the source gives them in different places.

Experiments:
GR [1] = biological target: T1, GR (Homo sapiens, UniProt P04150); experiment: 3H-dexamethasone displacement assay on cells (Ki); format: binding
T1 construct: evaluated using ^3H-ligand displacement assays on cells; endogenous in cells; host or cells: DU145
T1 sequence (P04150 1-777): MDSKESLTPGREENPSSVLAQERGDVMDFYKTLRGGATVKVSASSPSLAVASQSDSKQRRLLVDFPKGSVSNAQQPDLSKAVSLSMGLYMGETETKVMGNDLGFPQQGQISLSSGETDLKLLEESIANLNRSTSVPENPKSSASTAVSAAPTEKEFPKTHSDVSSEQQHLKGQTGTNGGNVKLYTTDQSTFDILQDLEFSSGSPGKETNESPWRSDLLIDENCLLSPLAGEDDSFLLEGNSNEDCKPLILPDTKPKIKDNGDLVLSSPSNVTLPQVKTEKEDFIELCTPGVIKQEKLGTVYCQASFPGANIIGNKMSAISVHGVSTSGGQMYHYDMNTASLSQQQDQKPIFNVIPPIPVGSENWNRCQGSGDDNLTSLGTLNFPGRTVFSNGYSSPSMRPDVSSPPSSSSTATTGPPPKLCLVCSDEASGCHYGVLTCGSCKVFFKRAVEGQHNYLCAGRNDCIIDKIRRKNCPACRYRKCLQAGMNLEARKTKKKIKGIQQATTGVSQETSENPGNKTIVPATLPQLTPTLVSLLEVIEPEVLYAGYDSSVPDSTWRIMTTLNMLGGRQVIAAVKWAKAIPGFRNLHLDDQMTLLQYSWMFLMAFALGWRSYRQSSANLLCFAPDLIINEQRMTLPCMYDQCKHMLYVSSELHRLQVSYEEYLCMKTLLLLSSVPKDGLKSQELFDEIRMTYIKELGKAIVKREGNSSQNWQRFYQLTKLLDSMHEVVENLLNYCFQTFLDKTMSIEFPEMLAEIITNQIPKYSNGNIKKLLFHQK
Experimental: Statistics. All statistical analysis was performed using PRISM v8.0 software. An unpaired, two-tailed Student's t test was used to determine statistically significant differences in the data. P<0.05 was reported as statistically significant. For the determination of Ki, the data were fit with a one site nonlinear regression model.
The racemic mixture of the phenol 27 was resolved using a chiral Lux® 5p Cellulose-1 stationary phase with an isocratic mobile phase of 30% water, 70% acetonitrile, and 0.1% trifluoroacetic acid (v v) (FIG. 8A). Several milligrams of one peak were isolated and the compound was recrystallized in hexanes.
The Ki were calculated using a one site Ki fit nonlinear regression with Prism v8.0. The data are representative of two independent assays.

GR [2] = biological target: T2, GR (Mus musculus, UniProt P06537); experiment: 11C radiotracer biodistribution with dexamethasone or Dex-CD blocking; format: in vivo; settings: for radiotracer uptake, Adrenal / radiotracer uptake, Blood / radiotracer uptake, Bone / radiotracer uptake, Brain / radiotracer uptake, Brown Fat / radiotracer uptake, Heart / radiotracer uptake, Kidney / radiotracer uptake, Lg. Int. / radiotracer uptake, Liver / radiotracer uptake, Lung / radiotracer uptake, Muscle / radiotracer uptake, Pancreas / radiotracer uptake, Sm. Int. / radiotracer uptake, Spleen / radiotracer uptake, Stomach: 20 min after injection
T2 construct: from tissue; host or cells: tissues of C57BL6/J mice (intact or adrenalectomized), in vivo
T2 sequence (P06537 1-792): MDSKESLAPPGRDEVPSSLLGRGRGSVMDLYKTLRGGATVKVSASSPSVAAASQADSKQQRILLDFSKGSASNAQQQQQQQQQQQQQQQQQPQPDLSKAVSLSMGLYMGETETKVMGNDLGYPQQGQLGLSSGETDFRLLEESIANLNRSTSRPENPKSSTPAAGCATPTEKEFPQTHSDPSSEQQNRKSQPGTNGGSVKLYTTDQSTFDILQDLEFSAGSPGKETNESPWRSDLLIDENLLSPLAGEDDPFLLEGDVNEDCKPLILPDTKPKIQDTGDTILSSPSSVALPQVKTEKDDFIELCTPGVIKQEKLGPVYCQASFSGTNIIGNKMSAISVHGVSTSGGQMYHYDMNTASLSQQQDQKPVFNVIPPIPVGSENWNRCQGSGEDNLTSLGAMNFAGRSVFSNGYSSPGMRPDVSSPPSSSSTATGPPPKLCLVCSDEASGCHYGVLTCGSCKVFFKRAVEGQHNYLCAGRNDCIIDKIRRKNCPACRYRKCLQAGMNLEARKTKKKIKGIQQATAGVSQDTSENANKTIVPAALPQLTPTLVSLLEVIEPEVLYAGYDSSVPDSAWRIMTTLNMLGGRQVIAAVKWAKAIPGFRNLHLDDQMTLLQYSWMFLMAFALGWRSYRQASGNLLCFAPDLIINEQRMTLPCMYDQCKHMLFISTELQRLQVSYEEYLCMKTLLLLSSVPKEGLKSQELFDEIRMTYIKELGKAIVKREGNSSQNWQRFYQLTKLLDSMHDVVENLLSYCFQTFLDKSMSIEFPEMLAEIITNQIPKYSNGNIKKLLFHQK
Experimental: Animal Studies. All animal experiments were performed under the approval of the Institutional Animal Care and Use Committee (IACUC) at UCSF. C57BL6/J mice (4-6 weeks) were purchased from Charles River. All the mice were housed in a dedicated vivarium with free access to food and water. […] Adrenalectomized mice were purchased from Charles River and provided drinking water supplemented with NaCl (aq) per instructions until the time of the tracer biodistribution study.
Biodistribution Studies. Mice were euthanized after radiotracer (7.4-18.5 MBq in 100-150 μL) injection with CO2 (g) asphyxiation and dissected at dedicated time points post injection. The blood and tissues were collected, washed, dried, and weighed. The activity of each tissue was measured with a gamma counter. All data was decay corrected. PRISM software was used to express a percentage (% ID/g) of the injected dose per gram of tissue.
The P value indicates the result of an unpaired, two-tailed Student's t test between the respective treatment group and vehicle (n=5/group).
Table 10 summarizes biodistribution data collected 20 minutes after injection of ^11C-YJH02 among two treatment arms receiving vehicle or one intraperitoneal injection of the water-soluble dexamethasone-cyclodextrin complex at 10 mg/kg one hour prior to radiotracer administration. The P value indicates the result of an unpaired, two-tailed Student's t test between the respective treatment group and vehicle (n=5/group).

plasma protein [3] = experiment: Plasma protein binding, rapid equilibrium dialysis, mouse plasma; format: in vitro ADME
Experimental: (§1) Plasma Protein Binding Studies. The rapid equilibrium dialysis (RED) device inserts along with a Teflon base plate (Pierce, Rockford, Ill.) were used for the binding studies. The pH of the human or mouse plasma was adjusted to 7.4 prior to the experiment. DMSO stocks (1 mM) were spiked into the plasma to make a final concentration of 2 μM. The spiked plasma solutions (300 μL) were placed into the sample chamber (indicated by the red ring); and 500 μL of PBS buffer, pH 7.4, was placed into the adjacent chamber. The plate was incubated at 37° C. on an orbital shaker (250 rpm) for 4 hours.
(§2) After 4 hours, from the RED plate, aliquots (100 μL) were removed from each side of the insert (plasma and buffer) and dispensed into the 96-well plate. Subsequently, 100 μL of blank plasma was added to the buffer samples and 100 μL of blank buffer was added to all the collected plasma samples. 300 μL of quench solution (50% acetonitrile, 50% methanol, and 0.05% formic acid, warmed up at 37° C.) containing internal standards was added to each well. Plates were sealed, vortexed, and centrifuged at 4° C. for 15 minutes at 4000 rpm. The supernatant was transferred to fresh plates for LC/MS/MS analysis. The sample were analyzed on LC/MS/MS using an AB Sciex API 4000 instrument, coupled to a Shimadzu LC-20AD LC Pump system. Analytical samples were separated using a Waters Atlantis T3 dC18 reverse phase HPLC column (20 mm×2.1 mm) at a flow rate of 0.5 mL/min. The mobile phase consisted of 0.1% formic acid in water (solvent A) and 0.1% formic acid in acetonitrile (solvent B).
(§3) The percentage of test compound bound to protein was calculated by the following equations:
(§4) % Free=(Concentration in buffer chamber/Concentration in plasma chamber)×100%

[4] = as above; format: in vitro ADME; settings: mouse, plasma, pH 7.4, mouse plasma
Experimental: as §1, §2, §3, §4

plasma protein [5] = experiment: Plasma protein binding, rapid equilibrium dialysis, human plasma; format: in vitro ADME
Experimental: as §1, §2, §3, §4

[6] = as above; format: in vitro ADME; settings: human, plasma, pH 7.4, human plasma
Experimental: as §1, §2, §3, §4

[7] = GR in cells, one site Ki fit, read-out: Ki
[8] = DU145 cells, read-out: affinity (3H-dexamethasone displacement curves)
[9] = mice given Dex-CD 10 mg/kg intraperitoneal one hour prior to radiotracer
[10] = duplicate, read-out: % Bound (converted)
[11] = read-out: % Bound Average (converted)

## COc1cccc2c1-c1ccc3c(c1C(O)O2)C(C)=CC(C)(C)N3 (centres unmarked) [YJH03]
GR [1]; [7]
  Ki: 6.51 nM

## CC1=CC(C)(C)Nc2ccc3c(c21)c(=O)oc1cccc(O)c13 [YJH01, 2,5-dihydro-10-hydroxy-5-oxo-2,2,4-trimethyl-1H-[1]benzopyrano [3,4-f]quinoline]
GR [1]; [7]
  Ki: 2.35 nM

## COc1cccc2oc(=O)c3c4c(ccc3c12)NC(C)(C)C=C4C [YJH02, 2,5-Dihydro-10-methoxy-5-oxo-2,2,4-trimethyl-1H-[1]benzopyrano [3,4-f]quinoline]
GR [1]; [7]
  Ki: 2.67 nM

## COc1cccc2c1-c1ccc3c(c1[C@@H](Cc1ccc(F)cc1)O2)C(C)=CC(C)(C)N3 [(R)-YJH08]
GR [1]; [8]
  Ki: < 5 nM
GR [1]; [7]
  Ki: 3.76 nM

## COc1cccc2oc(=O)c3c4c(ccc3c12)NC(C)(C)C=C4C [^11C-YJH02]
GR [2]; [9]
  radiotracer uptake, Adrenal: 2.37 ± 1.0 % ID/g
  radiotracer uptake, Blood: 1.07 ± 0.1 % ID/g
  radiotracer uptake, Bone: 0.76 ± 0.1 % ID/g
  radiotracer uptake, Brain: 0.34 ± 0.07 % ID/g
  radiotracer uptake, Brown Fat: 3.64 ± 1.0 % ID/g
  radiotracer uptake, Heart: 0.97 ± 0.1 % ID/g
  radiotracer uptake, Kidney: 1.28 ± 0.1 % ID/g
  radiotracer uptake, Lg. Int.: 1.06 ± 0.3 % ID/g
  radiotracer uptake, Liver: 3.75 ± 0.8 % ID/g
  radiotracer uptake, Lung: 1.71 ± 0.2 % ID/g
  radiotracer uptake, Muscle: 0.57 ± 0.1 % ID/g
  radiotracer uptake, Pancreas: 1.76 ± 0.4 % ID/g
  radiotracer uptake, Sm. Int.: 5.80 ± 2.5 % ID/g
  radiotracer uptake, Spleen: 0.76 ± 0.1 % ID/g
  radiotracer uptake, Stomach: 1.81 ± 0.3 % ID/g
GR [2]; mice given vehicle
  radiotracer uptake, Adrenal: 6.17 ± 0.7 % ID/g
  radiotracer uptake, Blood: 1.24 ± 0.1 % ID/g
  radiotracer uptake, Bone: 0.70 ± 0.1 % ID/g
  radiotracer uptake, Brain: 0.66 ± 0.1 % ID/g
  radiotracer uptake, Brown Fat: 4.65 ± 1.1 % ID/g
  radiotracer uptake, Heart: 1.15 ± 0.2 % ID/g
  radiotracer uptake, Kidney: 1.38 ± 0.4 % ID/g
  radiotracer uptake, Lg. Int.: 1.63 ± 0.4 % ID/g
  radiotracer uptake, Liver: 6.78 ± 1.1 % ID/g
  radiotracer uptake, Lung: 2.07 ± 0.4 % ID/g
  radiotracer uptake, Muscle: 0.74 ± 0.1 % ID/g
  radiotracer uptake, Pancreas: 2.70 ± 0.4 % ID/g
  radiotracer uptake, Sm. Int.: 10.88 ± 2.7 % ID/g
  radiotracer uptake, Spleen: 1.55 ± 0.1 % ID/g
  radiotracer uptake, Stomach: 2.51 ± 0.4 % ID/g
GR [2]; normal mice, 20 min post injection
  brain uptake relative to (±)-^11C-YJH08: approximately three fold lower

## CC(C)NCC(O)COc1cccc2ccccc12 (centres unmarked) [Propranolol]
Plasma protein [3]; mouse plasma, 2 μM, duplicate
  % Bound: 78.25%
Plasma protein [3]; plasma (rapid equilibrium dialysis device), pH 7.4, mouse plasma
  recovery at 4 h, 2 μM: 106%
[4]; [10]
  fraction unbound at 4 h, 2 μM: 0.223
[4]; [11]
  fraction unbound at 4 h, 2 μM: 0.22
Plasma protein [5]; human plasma, 2 μM, duplicate
  % Bound: 64.56%
Plasma protein [5]; plasma (rapid equilibrium dialysis device), pH 7.4, human plasma
  recovery at 4 h, 2 μM: 104%
[6]; [10]
  fraction unbound at 4 h, 2 μM: 0.354
[6]; [11]
  fraction unbound at 4 h, 2 μM: 0.354

## COc1cccc2c1-c1ccc3c(c1[C@H](Cc1ccc(F)cc1)O2)C(C)=CC(C)(C)N3 [(S)-YJH08]
GR [1]; [8]
  Ki: < 5 nM
GR [1]; [7]
  Ki: 2.03 nM

## COc1cccc2c1-c1ccc3c(c1C(OC)O2)C(C)=CC(C)(C)N3 (centres unmarked) [YJH04, 5,10-Dimethoxy-2,5-dihydro-2,2,4-trimethyl-1H-[1]benzopyrano[3,4-f]quinolone]
GR [1]; [7]
  Ki: 6.22 nM
